Experimental data taken from patent US20190055512A1, “METHODS AND COMPOSITIONS FOR SUBSTITUTING MEMBRANE LIPIDS IN LIVING CELLS” (The Research Foundation for The State University of New York, priority 2016, published 2019).

Assays:
[1] = tested on: A549 cells; assay: Cell morphology (cell rounding) and cell condition during incubation with MαCD and lipids
Text: In certain embodiments, the appropriate lipid concentration can be determined prior to implementing the exchange methods of the instant disclosure. For example, the optimal lipid concentration can be determined by screening a series of various lipid concentrations. For example, cyclodextrin-lipid complexes of the present disclosure can be formed using a constant alpha-cyclodextrin concentration and varying lipid. Once various solutions of cyclodextrin and lipid are made they can be applied to cells using the methods described herein. This will enable the user to identify the highest concentration(s) lipids where the cells are not negatively affected, i.e., no cell rounding over time is optimal for lipid exchange, as it minimizes cell loss during processing. This can be determined, for example, by splitting cells into each well of a multi-well plate one day before the experiment and growing the cells to confluence. Then equal aliquots of the solutions having various concentrations of lipid are placed in separate wells and incubated at 37° C. for 1-2 hours.
In certain embodiments, the appropriate cyclodextrin concentration can be determined prior to implementing the exchange methods of the instant disclosure. For example, the optimal cyclodextrin concentration can be determined by screening a series of various cyclodextrin concentrations. For example, cyclodextrin-lipid complexes of the present disclosure can be formed using a constant lipid concentration but varying alpha-cyclodextrin concentration. Once various solutions of cyclodextrin and lipid are made they can be applied to cells using the methods described herein. […] This can be determined, for example, by splitting cells into each well of a multi-well plate one day before the experiment and growing the cells to confluence. Then equal aliquots of the solutions having various concentrations of cyclodextrin are placed in separate wells and incubated at 37° C. for 1-2 hours.
In some embodiments, the instructions for the analysis of lipid exchange include methods for identifying optimal concentrations of lipids and/or cyclodextrins for use in exchanging lipids between a cyclodextrin-lipid complex of the present disclosure and a cell membrane. […] As such, instructions included within kits of the instant disclosure can include, instructions for screening a series of various cyclodextrin or lipid concentrations. For example, the instructions can include maintaining a constant lipid concentration and altering numerous alpha-cyclodextrin concentrations or vice versa. […] This can be determined, for example, by splitting cells into each well of a multi-well plate one day before the experiment and growing the cells to confluency. […]

[2] = tested on: A549 cells; assay: Charred TLC of cellular lipids after exchange; assay type: cell-based, human; conditions: exchange with 3 mM exogenous POPC and MαCD, 1 hour; FIG. 5C lane 4
Protocol: High Performance Thin Layer Chromatography. The samples and pure lipid standards were dissolved in 1:1 (v:v) chloroform/methanol. […] The dissolved lipids then applied to HP-TLC (Silica Gel 60) plates (Merck, KGaA, Darmstadt, Germany) or Uniplate Silica Gel G plates (Analtech, Inc., Newark, Del.) and chromatographed in 65:25:5 (v:v) chloroform/methanol/28.0-30.0 (v/v) % ammonium hydroxide. Following chromatography, the TLC plates were air-dried and saturated with 3% (w/v) cupric-acetate-8% (v/v) phosphoric acid by spraying, and then air-dried again. Plates were then charred at 180° C. to develop lipid bands. Lipid band intensity was measured using Image J software (National Institutes of Health). Lipids in samples were quantified by comparing background-subtracted band intensity with that of a curve composed of various standard amounts of each lipid chromatographed on the same TLC plate. The intensity in the standard bands was fit to a linear intensity versus lipid quantity curve.
Analysis of exogenous lipid exchange over time after delivery into A549 cells. After a 1 h at 37° C. treatment with 40 mM MαCD mixed with 1.5 mM bSM, A549 cells were washed three times with DPBS. Then the cells were cultured for 0, 2, 4, and 6 hours in 10 mL RPMI 1640 medium supplemented with 10% fetal bovine serum. […]

[3] = tested on: A549 cells; assay: Phospholipid content by LC/MS/MS after lipid exchange; assay type: cell-based, human; conditions: mass spectrometry
Protocol: Exchange of Lipids between Cells and Cyclodextrin-lipid Complexes. Unless otherwise noted, the cells are cultured in 10 cm plates with 10 mL medium. After removing the growth medium and washing three times with 10 ml DPBS, a 1500 μL aliquot of cyclodextrin-lipid complex containing MαCD (formed using 1.5 mM lipid and 40 mM MαCD concentrations) was added to 90% confluent mammalian cells cultured in […] cell culture dishes (Corning Incorporated, Durham, N.C.). The cells were then incubated with the cyclodextrin-lipid complex for 1 hour at 37° C., unless otherwise noted. After removal of the cyclodextrin-lipid complex and three washes with 10 mL PBS the cells were removed from the plate by scraping in 5 mL PBS. The cells were then pelleted by centrifugation for 3 minutes at 3,000 rpm and the lipid composition of the pellet was analyzed. […]
Phospholipid Content by LCMS/M S: Phospholipids were extracted from samples as set forth above. […] The class specific phospholipid extracts for each sample were injected on an Agilent (Santa Clara Calif., USA) Eclipse XDB-C8 reversed phase column (4.6×50 mm, 1.8 μm particle size) for separation of molecular species within each class by gradient elution and detected by mass spectrometry utilizing scheduled multiple reaction monitoring. In this manner, a peak with unique column elution time and mass-to-fragment profile was measured. […]

[4] = tested on: A549 cells; assay: Dithionite quenching of the NBD-DPPE exchanged into the cells; assay type: cell-based, human
Protocol: Dithionite Quenching of the NBD-DPPE Exchanged into the Cells. Cells into which NBD-DPPE was exchanged were prepared as described above, except at either 15° C., room temperature (23° C.) or 37° C. Fluorescence was measured before and (as a function of time) after the addition of a freshly prepared solution of IM dithionite in IM Tris buffer (pH 10) to the cells providing a final dithionite concentration of 50 mM.

[5] = tested on: A549 cells; assay: Delivery of fluorescent NBD-DPPE into cells, kinetics of exchange; assay type: cell-based, human
Protocol: Microscopy and Kinetics of Exchange Monitored with Fluorescent Probes and ^3H Acetate: Cyclodextrin-lipid complex containing 1.5 mM lipid (90% bSM and 10% NBD-DPPE) and 40 mM MαCD was prepared. Then, 500 μl of the cyclodextrin-lipid complex was added to 90% confluent A549 cells cultured in 6-well plates (Corning Inc., Durham, N.C.). The cells were incubated for different times at 37° C., and then the cyclodextrin-lipid complex was removed. After three washes with 2 ml PBS the cells were removed from the plate by scraping in 1 ml PBS. The cells were pelleted by centrifugation at 3,000 rpm for 3 minutes and re-suspended in 1 ml PBS. Seven μl aliquots of cells were loaded on microscope slides and covered with a, coverslip. NBD fluorescence was then imaged by confocal laser scanning microscopy using a Zeiss LSM 5 Pascal confocal laser scanning microscope system (Carl Zeiss AG, German).
In other experiments, fluorescence intensity was measured for the each well of cells whereby cells were placed in fluorescence cuvettes using Fluorolog (Jobin Yvon Horiba, Edison, N.J.) with an excitation wavelength of 465 nm and emission wavelength of 534 nm. A non-specific lipid transfer control was prepared in a similar fashion without cyclodextrin.
In an analogous experiment, A549 cells were ^3H labeled and subjected to lipid exchange with cyclodextrin-lipid complex. The cells were collected at different times and lipids extracted and separated on TLC as described above. Radioactivity in the PS+PI and SM bands was subsequently measured by scintillation counting.

[6] = tested on: MDA-MB-231 cells; assay: Transferrin (TF) endocytosis; assay type: cell-based; conditions: cholesterol depletion, 10 mM MβCD, 30 min, 37° C.
Protocol: Measurement of Transferrin (TF) Endocytosis. MDA-MB-231 cells were plated in 2 ml RPMI 1640 at 6×10^5 on a coverslip in a 35 mm dish. After 1 d, they were subjected to cholesterol depletion or phospholipid exchange. For cholesterol depletion, cells were washed with 1 ml DPBS (2-3 times) and treated with 10 mM M MβCD/DMEM for 30 min at 37° C. in the CO2 incubator. For phospholipid substitution, the DPBS washed cells were treated with mixture of 40 mM MαCD and a combination of 0.75 mM bSM and 0.75 mM POPC in serum free medium for 30 rain, again while maintained at 37° C. in the CO2 incubator. After cholesterol depletion or phospholipid exchange, cells were washed with 1 ml DPBS three times. Then 50 μg/ml TF-AF488 in DMEM was added to the cells and incubated for 10 min in room temperature in the dark. Next, cells were washed with 2 ml DPBS three times and subjected to an additional 3 washes on ice with an acid solution (100 mM citric acid, 140 mM NaCl in distilled water pH adjusted to 1.75), incubating the cells with the solution for 3 min during each wash. The acid wash solution was removed by washing three times with 2 ml of 1×PBS and the cells then fixed using 2 ml 3% PFA for 30 min (10 min on ice and 20 min at room temperature). […]

Which “incubation time at which normal morphology begins to change” value ([1]; 3 mM POPC, 40 mM MαCD) does the source give for “1-palmitoyl-2-oleoyl-sn-glycerol-3-phosphocholine [POPC]” here?
The value was “≈45′”.

What about the “incubation time at which normal morphology begins to change” value ([1]; 3 mM POPC, 80 mM MαCD) of the same compound?
Its value is “≈15′”.

And the “incubation time at which normal morphology begins to change” value ([1]; 6 mM POPC, 40 mM MαCD)?
The value was “≈45′”.

What about the “incubation time at which normal morphology begins to change” value ([1]; […] POPC, 40 mM MαCD) of the same compound?
The value was “≈15′”.

And the “removal of endogenous SM” value [2]?
Its value is “most endogenous SM was removed”.

With CCCCCCCCCCCCC/C=C/[C@@H](O)[C@H](COP(=O)([O-])OCC[N+](C)(C)C)NC(=O)CCCCCCCCCCCCCCCC [C17:0 SM, N-hepadecanoyl-D-erythro-sphingosylphosphorylcholine] as the compound, how does the “exogenous C17:0 SM in cells after exchange relative to total endogenous cell SM prior to exchange” value [3] read?
The value was 2.1 fold.

For CCCCCCCCCCCCCCCC(=O)OC[C@H](COP(=O)(O)OCCNc1ccc([N+](=O)[O-])c2nonc12)OC(=O)CCCCCCCCCCCCCCC [NBD-DPPE, 1,2-dipalmitoyl-sn-glycero-3-phosphoethanolamine-N-(7-nitro-2-1,3-benzoxadiazol-4-yl)], which “NBD-lipid exchanged into cells accessible to dithionite” value ([4]; FIG. 3B) is on record?
Its value is 70-80%.

What about the “fluorescence protected from dithionite reduction” value ([4]; incubation at 15° C.) of the same compound?
The value was “about 20%”.

And the “fluorescence protected from dithionite reduction” value ([4]; incubation at 37° C., extrapolated to time zero)?
Its value is “approximately 30%”.

What about the “half-time of delivery of NBD-DPPE and removal of endogenous SM” value ([5]; 37° C., FIG. 2A) of the same compound?
The value was 15 to 20 min.

And the “Half-time of lipid exchange (endogenous SM removal / NBD-DPPE delivery)” value ([5]; A549 cells, 37° C., FIG. 2A legend)?
The value was 10 to 15 min.

OC[C@H]1O[C@@](CO)(O[C@H]2O[C@H](CO)[C@@H](O)[C@H](O)[C@H]2O)[C@@H](O)[C@@H]1O [sucrose] was tested. Which “amount of fluorescent lipid delivered to cells relative to buffer only” value ([5]; 40 or 240 mM sucrose substituted for MαCD) did it give?
Its value is “did not increase”.

How did the “clathrin-mediated endocytosis of transferrin” value [6] turn out when Methyl-β-cyclodextrin [MβCD] was run?
The value was “strongly inhibited”.
